Experimental data reported in US20260274851A1, “MODULATORS OF TRPML, THEIR COMPOSITIONS AND METHODS OF USE” (Caraway Therapeutics, Inc., priority 2023, published 2026).

What was measured:
[1] = biological target: T1, Human TRPML3 (Homo sapiens, UniProt Q8TDD5); test: Fluorescent TRPML3 assay (as for TRPML1); format: cell-based; settings: as TRPML1 assay with TRPML3 subtype
T1 construct: expressed in transfected cells
T1 sequence (Q8TDD5 1-553): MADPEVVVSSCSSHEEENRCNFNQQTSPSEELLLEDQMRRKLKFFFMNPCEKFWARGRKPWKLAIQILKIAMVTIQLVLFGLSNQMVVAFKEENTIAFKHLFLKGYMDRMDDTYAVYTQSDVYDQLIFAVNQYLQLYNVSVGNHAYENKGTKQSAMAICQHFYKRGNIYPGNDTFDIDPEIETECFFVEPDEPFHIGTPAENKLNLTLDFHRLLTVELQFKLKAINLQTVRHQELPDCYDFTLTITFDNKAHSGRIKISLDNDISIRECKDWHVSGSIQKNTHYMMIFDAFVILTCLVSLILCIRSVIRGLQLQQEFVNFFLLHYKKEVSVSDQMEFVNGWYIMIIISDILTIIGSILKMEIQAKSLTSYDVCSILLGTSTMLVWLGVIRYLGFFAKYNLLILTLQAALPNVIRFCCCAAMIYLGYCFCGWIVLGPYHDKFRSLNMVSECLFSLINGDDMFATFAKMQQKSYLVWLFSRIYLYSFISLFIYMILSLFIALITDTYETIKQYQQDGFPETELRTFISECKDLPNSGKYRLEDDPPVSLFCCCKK
Procedure: (§1) HEK-293 Trex cells were stably transfected with a construct consisting of the human coding sequence for TRPML1 cloned into the tet-inducible plasmid pCDNA5 T/O. Mutations were introduced into the TRPML1 sequence to facilitate expression on the cell surface (Silvia Vergarajauregui. Rosa Puertollano Traffic. 2006 March: 7(3): 337-353). Briefly, the cells are cultured in 150 mm round tissue culture dishes containing 20 mL of media. The day before the assay the cells are rinsed with DPBS—Ca —Mg and then treated briefly with Trypsin-EDTA. The Trypsin-EDTA is diluted with growth media, and cells are counted. 38×10^6 cells are re-plated into 150 mm round tissue culture dishes in media containing 0.5 g/mL doxycycline to induce expression of hTRPML1.
(§2) The day of the experiment cells are lifted from the plates as above and collected by centrifugation. The cells are then suspended in dye loading buffer consisting of Ringer's solution supplemented with 0.1% Pluronic Acid and 1 micromolar Fluo4-AM dye. Cells are loaded for ~60 minutes in the dark with occasional mixing. The cells are collected by centrifugation, the loading media aspirated, and the cells resuspended in 25 mL Ringer's solution and incubated ~60 minutes in the dark. The cells are again collected by centrifugation, rinsed in Ringer's Solution and resuspended to 0.2×10^6 cells/mL in modified Ringer's solution containing 10 mM calcium.
(§3) Compounds are dissolved to a concentration of 10 millimolar with DMSO. Compound plates are created by dispensing compounds into 384 well black wall clear bottom plates (Greiner 781091). Positive and negative controls are included on each plate. Typically, different amounts of each compound are tested ranging from 100 nanoMoles (20 micromolar final concentration) decreasing in half-log steps to 31 picoMoles (6 nanomolar final concentration). Each concentration is typically tested in triplicate.
(§4) 50 microliters of dye-loaded cells are dispensed into each well of the compound assay plate created above. The fluorescence in each well is then determined with an excitation wavelength of 480 nm and an emission wavelength of 540 nm using either a Molecular Devices SpectraMax multimode plate reader or a Hamamatsu FDSS/uCell plate imager.
(§5) The resulting fluorescence for each well is exported as an ascii file and loaded into our LIMS for analysis. The percent activity of each compound at each concentration is determined by comparison to the positive and negative control wells included in each plate.
Assays for TRPML2 and TRPML3 were performed as above for TRPML1, by substituting the appropriate TRPML2 or TRPML3 subtype for the TRPML1.
(§6) EC50 values were calculated using a non-linear regression of Prism. In the table, “A” indicates an EC50 of less than 100 nM, “B” indicates an EC50 range from 100 nM to 500 nM; “C” indicates an EC50 range from 500 nM to 2 μM; and “D” indicates an EC50 greater than 2 μM.

[2] = biological target: Human TRPML1 (Homo sapiens, UniProt Q9GZU1); test: Fluorescent TRPML1 assay (Fluo4 calcium fluorescence, HEK-293 Trex cells); format: cell-based; settings: HEK-293 Trex cells expressing surface-directed hTRPML1, Fluo4 fluorescence
Procedure: as §1, §2, §3, §4, §5, §6

[3] = biological target: T2, Human TRPML2 (Homo sapiens, UniProt Q8IZK6); test: Fluorescent TRPML2 assay (as for TRPML1); format: cell-based; settings: as TRPML1 assay with TRPML2 subtype
T2 construct: expressed in transfected cells
T2 sequence (Q8IZK6 1-566): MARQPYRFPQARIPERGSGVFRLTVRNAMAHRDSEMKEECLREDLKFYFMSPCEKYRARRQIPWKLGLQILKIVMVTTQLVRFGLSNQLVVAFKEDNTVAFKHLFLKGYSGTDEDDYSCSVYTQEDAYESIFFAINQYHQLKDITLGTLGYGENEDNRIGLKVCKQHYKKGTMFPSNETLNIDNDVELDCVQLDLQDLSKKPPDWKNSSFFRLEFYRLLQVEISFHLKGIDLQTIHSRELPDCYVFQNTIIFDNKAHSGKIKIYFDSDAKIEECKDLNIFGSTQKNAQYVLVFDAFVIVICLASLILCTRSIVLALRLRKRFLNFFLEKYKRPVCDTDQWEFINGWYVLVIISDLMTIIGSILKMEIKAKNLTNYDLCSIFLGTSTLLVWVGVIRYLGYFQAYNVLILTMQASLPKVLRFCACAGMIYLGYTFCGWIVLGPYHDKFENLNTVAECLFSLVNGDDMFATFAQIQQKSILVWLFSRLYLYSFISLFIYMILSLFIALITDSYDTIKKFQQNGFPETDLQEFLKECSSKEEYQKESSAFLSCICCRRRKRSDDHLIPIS
Procedure: as §1, with “38×10^6 cells are re-plated into 150 mm round tissue culture dishes in media containing 0.5 g/mL doxycycline to induce expression of hTRPML1.” left out
as §4
The resulting fluorescence for each well is exported as an ascii file and loaded into our LIMS for analysis. The percent activity of each compound at each concentration is determined by comparison to the positive and negative control wells included in each plate. […]
EC50 values were calculated using a non-linear regression of Prism. […]

[4] = tested on: TRPMLs; settings: high concentrations needed; background statement; cited from earlier work

Chain of Human TRPML1 (Q9GZU1 whole entry L15A/L16A/L577A/L578A, form open): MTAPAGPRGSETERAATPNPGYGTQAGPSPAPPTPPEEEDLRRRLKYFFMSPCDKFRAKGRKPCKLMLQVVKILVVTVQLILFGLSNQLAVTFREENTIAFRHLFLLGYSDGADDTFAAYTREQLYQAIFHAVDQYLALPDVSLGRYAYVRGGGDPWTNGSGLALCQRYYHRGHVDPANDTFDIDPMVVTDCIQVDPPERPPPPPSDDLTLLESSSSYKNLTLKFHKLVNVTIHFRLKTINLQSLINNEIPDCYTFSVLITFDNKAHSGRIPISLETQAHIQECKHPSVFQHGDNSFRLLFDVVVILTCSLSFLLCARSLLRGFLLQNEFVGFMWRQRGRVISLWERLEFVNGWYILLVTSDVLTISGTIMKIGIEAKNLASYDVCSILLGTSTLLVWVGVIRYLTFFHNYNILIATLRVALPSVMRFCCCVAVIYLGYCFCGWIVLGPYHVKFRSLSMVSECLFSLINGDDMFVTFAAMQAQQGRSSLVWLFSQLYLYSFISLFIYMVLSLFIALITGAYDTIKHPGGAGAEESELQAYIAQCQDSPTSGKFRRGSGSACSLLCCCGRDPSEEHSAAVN

EC50 [1]	EC50 [2]	EC50 [3]	SMILES	Concentration needed to effectively activate TRPMLs [4]
500 to 2000 nM	100 to 500 nM		C[C@@H]1CN(c2ncnc3c2c(-c2ccccc2F)cn3-c2cccc(Cl)c2)[C@@H](C)CN1C(=O)C(C)(C)O [Compound 105, 1-((2R,5S)-4-(7-(3-chlorophenyl)-5-(2-fluorophenyl)-7H-pyrrolo[2,3-d]pyrimidin-4-yl)-2,5-dimethylpiperazin-1-yl)-2-hydroxy-2-methylpropan-1-one]	
> 2000 nM	100 to 500 nM		C[C@@H]1CN(c2ncnc3c2c(-c2ccccc2F)cn3-c2cccc(C#N)c2)[C@@H](C)CN1C(=O)C(C)(C)O [Compound 102, 3-(5-(2-fluorophenyl)-4-((25,5R)-4-(2-hydroxy-2-methylpropanoyl)-2,5-dimethylpiperazin-1-yl)-7H-pyrrolo[2,3-d]pyrimidin-7-yl)benzonitrile]	
> 2000 nM	500 to 2000 nM		C[C@@H]1CN(c2ncnc3c2c(-c2ccccc2F)cn3-c2cc(F)cc(F)c2)[C@@H](C)CN1C(=O)C(C)(C)O [Compound 104, 1-((2R,5S)-4-(7-(3,5-difluorophenyl)-5-(2-fluorophenyl)-7H-pyrrolo[2,3-d]pyrimidin-4-yl)-2,5-dimethylpiperazin-1-yl)-2-hydroxy-2-methylpropan-1-one]	
> 2000 nM	100 to 500 nM		C[C@@H]1CN(c2ncnc3c2c(-c2ccccc2)cn3-c2cccc(C#N)c2)[C@@H](C)CN1C(=O)C(C)(C)O [Compound 101, 3-(4-((2S,5R)-4-(2-hydroxy-2-methylpropanoyl)-2,5-dimethylpiperazin-1-yl)-5-phenyl-7H-pyrrolo[2,3-d]pyrimidin-7-yl)benzonitrile]	
< 100 nM	< 100 nM	100 to 500 nM	COC(C)(C)C(=O)N1C[C@H](C)N(c2ncnc3c2c(-c2ccccc2F)cn3-c2cccc(F)c2)C[C@H]1C [Compound 103, 1-((2R,5S)-4-(5-(2-fluorophenyl)-7-(3-fluorophenyl)-7H-pyrrolo[2,3-d]pyrimidin-4-yl)-2,5-dimethylpiperazin-1-yl)-2-methoxy-2-methylpropan-1-one]	
			CC1CC(C)(C)N(C(=O)CN2C(=O)c3ccccc3C2=O)c2ccccc21 (stereo not drawn) [ML-SA1]	~ 10 μM
